Results on 2 sequences are retold here after US8420100B2, “Tumor suppressor activating polypeptides and uses thereof” (Department of Biotechnology, priority 2006, dated 2013).

“Also recorded” adds a separate entry of the source.

Assay [1] has as its system B16F1 mouse melanoma cells. Description: B16F1 melanoma tumor regression in nude mice. It counts as in vivo. Particulars: for anti-tumorigenic activity (tumor regression): xenograft tumor nude mice model. How it is done: P44 peptide: A potent tumor regressor: To test whether the differences in SMAR1 derived peptide-induced activation of p53 translated to differences in drug sensitivity in vivo, B16F1 mouse melanoma cells were subcutaneously grafted into athymic nude mice, and tumor growth together with therapeutic sensitivity was monitored. Once the tumor nodule was established into the mouse, P44 peptide was injected in the tumor localized areas at a physiological dose of 200 μg/mouse thrice a week. The treatment was continued for 4 weeks. In a parallel experiment, either TAT PTD or TAT-SMAR1 RS mutant peptide, SM (FIGS. 6A and B, respectively) was injected in tumor bearing mice to be used as control.
FIG. 6D-F corresponds to the magnified tumor images of FIG. 6A-C, respectively. […] Thus, P44 peptide mimics the function of full-length SMAR1 in drastically reducing the tumor growth.
FIG. 6. Tumor regression by TAT-SMAR1 WT peptide. A, Nude mice were allowed to develop tumors by subcutaneously injecting B 16F1 mouse melanoma cells. Mice with size-matched tumors were then randomized into three treatment groups (five animals per group); TAT PTD alone (panel A), TAT-SMART RS mutant (SM) (panel B) and TAT-SMAR1 WT (P44) (panel C). Panels D, E and F correspond to the magnified images of panels A, B and C, respectively. Mice were treated with either of the peptides at a dose of 200 μg/mice/thrice a week for consecutive 4 weeks. The tumors were then weighed and plotted for each mouse in all the treatment groups (panel G).
Animal model for tumorgenesis: B16F1 mouse melanoma cells in the exponential growth phase were trypsinized (Invitrogen) and washed twice with PBS. Cell number and viability was assessed and cell cultures with viability >90% were used. Tumors were then established in nude mice by subcutaneous injection of 2×10^6 B16F1 cells. Five mice were used in each set of experiments. The mice were maintained under pathogen-free conditions. When the subcutaneous tumor was clearly visible, the TAT-SMAR1 WT (P44) peptide treatment was started. The P44 peptide was subcutaneously injected proximal to the tumor sites at a dose of 200 μg/mouse thrice a week. The treatment was administered for 4 weeks. For control treatment, TAT PTD alone and TAT SMAR1 RS mutant peptide (SM) were injected in the same manner as the P44 peptide.

For assay [2], the system named is tumor vasculature of B16F1-induced tumors. Description: Hematoxylin and eosin histopathology of B16F1-induced tumors. It is filed as in vivo, mouse. Conditions: tumors excised from treated mice. The source says: (§1) Histopathological changes in the subcutaneous tumors: To analyze the tumor vasculature of TAT PTD, SM treated and P44 treated mice, the tumor sections were stained with HE. […] In SM treated tumors, due to compressed vessels, the shape of RBCs were also distorted (FIG. 7A, lower right panel, arrow marked). […] The presence of hypoxic cells is a hallmark of cancer (Brown, J. M., and Wilson, W. R. (2004) Nat. Rev. Cancer 4, 437-447; Minchinton, A. I., and Tannock, I. F. (2006) Nat. Rev. Cancer 6, 583-592). Cellular responses to hypoxia are triggered by the hypoxia inducible factor-1 alpha (HIF-1α) that is known to restore tissue homeostasis in hypoxic conditions (Semenza, G. L. (2000) Genes Dev. 14, 1983-1991). To determine the status of HIF-1α expression, immunohistochemical analysis was performed on tumor sections obtained from SM and P44 treated mice by using antibody against HIF-1 α. […] All these observations implicate the significance of P44 peptide in restoring tissue architecture in tumor cells and thus potentiates its role as a tumor regressor.
(§2) FIG. 7. Histopathological changes in B16F1-induced tumors. A, Hematoxylin and eosin staining of tumor sections excised from mice treated with either P44 (upper panel) or SM (lower panel) peptide. […] The images have been recorded at 20× and 40×. B, Immunohistochemistry of paraffin embedded tumor sections from P44 treated as well as, SM treated mice. After antigen unmasking, sections were stained with HIF-1α antibody (middle panel) and detected using Cy-3 conjugated mouse immunoglobulin. Sections were counterstained with DAP1 for nuclear localization (left panel). Right panel corresponds to the merged image.

The test system of a further assay is HIF-1α. Description: Immunohistochemical staining of tumor sections for HIF-1α. It counts as in vivo, mouse. Conditions: tumors excised from treated mice.
Excerpt: as §1, §2
Immunohistochemical staining of tumor sections: Tumor sections in paraffin-embedded blocks were transferred to poly-L-lysine coated glass slides and air-dried overnight at 37° C. They were dewaxed in xylene (three changes) and […] in graded series of decreasing ethanol concentrations. […] Thereafter, detected using cy-3 fluorescence labeled secondary antibody. […]

For assay [3], the system named is cell cycle regulatory genes. The assay is described as follows: Microarray gene expression upon P44 treatment. It is filed as cell-based.

As for “YGRKKRRQRRRTAWRRKQRGQSLAVKSFSRRTPAAAAYSASETM [SM, P44 mutant where serine residues from 347-350 were replaced by alanines]”, in assay [1] (nude mice, 200 μg/mouse thrice a week, 4 weeks), the “tumor weight after excision” value was 1.2 to 2.5 g. Also, the “anti-tumorigenic activity (tumor regression)” value in assay [1] is reported as “significantly reduced”. The “tumor vascular architecture (HE staining)” value in assay [2] is “leaky vascular architecture; also recorded: poorly organized vascular architecture and compressed blood vessels”. For the same sequence, in the assay with HIF-1α, the “HIF-1α expression in tumor sections” value was “increased HIF-1 α expression”.
On to “YGRKKRRQRRRTAWRRKQRGQSLAVKSFSRRTPSSSSYSASETM [P44, 33 mer SMAR1 peptide (residues 324-357) conjugated with 11-mer TAT-PTD]”, for which, in assay [1] (nude mice, 200 μg/mouse thrice a week, 4 weeks, injected at tumor site), the “regression in tumor compared to TAT-injected or SM injected mice” value is 5-7 fold. The “anti-tumorigenic activity (tumor regression)” value in assay [1] was “strongly regressed tumors”. Also, in assay [2], the “inter-vessel distance compared to SM-treated tumors” value is given as “significantly less” and the “tumor vascular architecture (HE staining)” value was “intact vasculature”. Moreover, the “HIF-1α expression in tumor sections” value in the assay on HIF-1α is reported as “no detectable level of HIF-1α”. In assay [3], the “expression of genes involved in regulating mitosis, MAPK signaling and cell cycle checkpoints” value is on record as “significant decreased expression”; the “expression of proteins involved in ubiquitin-proteasome signaling” value was “reduced expression”.
